Experimental data reported in ChEMBL document CHEMBL1129910, “Synthesis of an aminopropyl analog of the experimental anticancer drug tallimustine, and activation of its 4-nitrobenzylcarbamoyl prodrug by nitroreductase and NADH” (Bioorg Med Chem Lett, 1997).

Tests used:
Type in all cases: functional, cell-based
[1] = Cytotoxicity against the growth of LS174T human colon cancer cells was determined using sulforhodamine B assay in the presence of Nitroreductase+NADH
[2] = Cytotoxicity against the growth of LS174T human colon cancer cells was determined using sulforhodamine B assay
[3] = Cytotoxicity against the growth of […] human colon cancer cells was determined using sulforhodamine B assay; details: Cancer cell lines
[4] = Cytotoxicity against the growth of […] human colon cancer cells was determined using sulforhodamine B assay in the presence of Nitroreductase+NADH; details: Cancer cell lines

SMILES	IC50 [1]	IC50 [2]	IC50 [3]	IC50 [4]
Cn1cc(NC(=O)c2cc(NC(=O)c3cc(NC(=O)c4ccc(N(CCCl)CCCl)cc4)cn3C)cn2C)cc1C(=O)NCCCNC(=O)OCc1ccc([N+](=O)[O-])cc1	0.02 µM	2.3 µM	22.9 µM	9.4 µM
Cn1cc(NC(=O)c2cc(NC(=O)c3cc(NC(=O)c4ccc(N(CCCl)CCCl)cc4)cn3C)cn2C)cc1C(=O)NCCCN	–	0.02 µM	10 µM	–
